This passage reports IC50 and Ki results from ChEMBL document CHEMBL1909046, “DrugMatrix in vitro pharmacology data”.

Tested on in one assay: not listed separately
Description: DRUGMATRIX: ATPase, Na+/K+ enzyme inhibition (substrate: ATP). Format: tissue-based, Sus scrofa, Heart. As to conditions: Not Active = under 50% inhibition at 10 µM.
For `CC(C)n1c(/C=C/C(O)CC(O)CC(=O)O)c(-c2ccc(F)cc2)c2ccccc21` (stereo not drawn) [FLUVASTATIN], the IC50 result was “Not Active” and the Ki result is reported as “Not Active”.

With `COc1ccc(CN(CCN(C)C)c2ccccn2)cc1` [PYRILAMINE], the IC50 entry was “Not Active” and the Ki entry is on record as “Not Active”.

Consider `CCCSc1ccc2nc(NC(=O)OC)[nH]c2c1` [ALBENDAZOLE], for which the IC50 entry is given as “Not Active” and the Ki result is listed as “Not Active”.

Tested on in a further assay: not listed separately
Put plainly: DRUGMATRIX: Glutamate, AMPA radioligand binding (ligand: [3H] AMPA). Format: cell membranes, Rattus norvegicus, Wistar, Cerebral cortex, Membrane. As to conditions: Not Active = under 50% inhibition at 10 µM.
In the case of `CC(C)n1c(/C=C/C(O)CC(O)CC(=O)O)c(-c2ccc(F)cc2)c2ccccc21` (stereo not drawn) [FLUVASTATIN], the IC50 entry was “Not Active” and the Ki result is reported as “Not Active”.

On to `COc1ccc(CN(CCN(C)C)c2ccccn2)cc1` [PYRILAMINE], for which the IC50 entry is “Not Active” and the Ki result is listed as “Not Active”.

For the compound `CCCSc1ccc2nc(NC(=O)OC)[nH]c2c1` [ALBENDAZOLE], the IC50 result is given as “Not Active” and the Ki entry is recorded as “Not Active”.

A further assay addresses T1, Leukotriene C4 synthase (Cavia porcellus, UniProt A6XA80).
T1 sequence (A6XA80 whole entry): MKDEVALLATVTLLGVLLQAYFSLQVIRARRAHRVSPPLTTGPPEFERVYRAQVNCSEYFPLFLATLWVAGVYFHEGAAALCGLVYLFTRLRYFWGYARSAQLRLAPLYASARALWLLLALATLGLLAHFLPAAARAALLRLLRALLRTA
Description: biochemical.
Settings: not given
Format: tissue-based, Lung.
On to `CC(C)n1c(/C=C/C(O)CC(O)CC(=O)O)c(-c2ccc(F)cc2)c2ccccc21` (stereo not drawn) [FLUVASTATIN], for which the IC50 entry is “Not Active”.

Turning to `COc1ccc(CN(CCN(C)C)c2ccccn2)cc1` [PYRILAMINE], the IC50 entry is recorded as “Not Active”.

In the case of `CCCSc1ccc2nc(NC(=O)OC)[nH]c2c1` [ALBENDAZOLE], the IC50 result is listed as “Not Active”.

Another assay deals with C-C chemokine receptor type 2 (Homo sapiens, UniProt P41597).
Sequence of C-C chemokine receptor type 2 (P41597 whole entry): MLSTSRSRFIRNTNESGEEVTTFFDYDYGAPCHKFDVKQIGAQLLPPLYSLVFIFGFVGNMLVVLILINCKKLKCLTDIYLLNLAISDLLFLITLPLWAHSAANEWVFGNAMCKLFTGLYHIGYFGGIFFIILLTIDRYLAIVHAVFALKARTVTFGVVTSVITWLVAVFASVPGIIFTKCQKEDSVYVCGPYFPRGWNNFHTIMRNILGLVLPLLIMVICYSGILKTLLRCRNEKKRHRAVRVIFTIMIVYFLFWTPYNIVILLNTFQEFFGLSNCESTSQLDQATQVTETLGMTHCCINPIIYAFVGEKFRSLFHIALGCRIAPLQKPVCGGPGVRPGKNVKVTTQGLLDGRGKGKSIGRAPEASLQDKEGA
Assay: not given
The following applies: cho-k1. Type of assay: cell membranes, CHO-K1, Membrane.
On to `CC(C)n1c(/C=C/C(O)CC(O)CC(=O)O)c(-c2ccc(F)cc2)c2ccccc21` (stereo not drawn) [FLUVASTATIN], for which the IC50 entry is reported as “Not Active”.

As for `COc1ccc(CN(CCN(C)C)c2ccccn2)cc1` [PYRILAMINE], the IC50 result is “Not Active”.

Turning to `CCCSc1ccc2nc(NC(=O)OC)[nH]c2c1` [ALBENDAZOLE], the IC50 entry is given as “Not Active”.

The target in the next assay is Insulin receptor (Rattus norvegicus, UniProt P15127). Further: in other assays of this panel Not Active means under 50% inhibition at 10 µM.
Sequence of Insulin receptor (P15127 27-759 limits assumed): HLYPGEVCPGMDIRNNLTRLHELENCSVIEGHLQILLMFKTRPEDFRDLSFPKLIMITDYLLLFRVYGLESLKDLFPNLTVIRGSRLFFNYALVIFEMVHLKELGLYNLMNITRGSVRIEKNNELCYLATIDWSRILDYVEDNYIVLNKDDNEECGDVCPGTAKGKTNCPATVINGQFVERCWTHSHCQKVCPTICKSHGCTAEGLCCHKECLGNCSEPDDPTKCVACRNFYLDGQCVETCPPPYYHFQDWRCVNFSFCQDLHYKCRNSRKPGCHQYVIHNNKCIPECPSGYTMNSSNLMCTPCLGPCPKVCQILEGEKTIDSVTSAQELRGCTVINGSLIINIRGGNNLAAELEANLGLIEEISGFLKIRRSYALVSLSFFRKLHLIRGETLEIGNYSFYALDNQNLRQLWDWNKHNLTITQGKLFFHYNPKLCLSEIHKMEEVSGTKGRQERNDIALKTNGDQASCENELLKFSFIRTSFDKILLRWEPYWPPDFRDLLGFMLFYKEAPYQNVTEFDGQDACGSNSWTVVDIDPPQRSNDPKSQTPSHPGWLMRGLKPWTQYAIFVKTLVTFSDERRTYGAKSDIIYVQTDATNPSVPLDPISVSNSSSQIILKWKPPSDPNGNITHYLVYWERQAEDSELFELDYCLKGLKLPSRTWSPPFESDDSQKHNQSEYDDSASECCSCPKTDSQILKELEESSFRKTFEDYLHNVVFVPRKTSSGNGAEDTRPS
Sequence of Insulin receptor (P15127 764-1383 limits assumed): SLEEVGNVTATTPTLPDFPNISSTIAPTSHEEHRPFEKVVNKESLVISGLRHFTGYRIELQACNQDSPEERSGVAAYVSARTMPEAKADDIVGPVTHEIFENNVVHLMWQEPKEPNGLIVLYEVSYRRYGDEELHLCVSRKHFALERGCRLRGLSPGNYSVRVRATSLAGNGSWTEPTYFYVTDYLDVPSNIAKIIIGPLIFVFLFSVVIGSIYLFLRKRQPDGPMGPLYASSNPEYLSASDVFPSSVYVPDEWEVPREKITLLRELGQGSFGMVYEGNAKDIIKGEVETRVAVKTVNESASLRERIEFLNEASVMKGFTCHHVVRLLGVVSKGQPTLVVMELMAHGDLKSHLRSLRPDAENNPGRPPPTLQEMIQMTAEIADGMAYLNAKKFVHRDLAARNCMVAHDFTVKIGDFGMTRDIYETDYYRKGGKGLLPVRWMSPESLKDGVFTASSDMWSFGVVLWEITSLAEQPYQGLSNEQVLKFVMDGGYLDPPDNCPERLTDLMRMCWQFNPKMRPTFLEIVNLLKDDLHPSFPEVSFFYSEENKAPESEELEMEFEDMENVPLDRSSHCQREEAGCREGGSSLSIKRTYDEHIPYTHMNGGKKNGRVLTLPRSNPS
Assay: not given
Settings: not given
Type of assay: cell membranes, Wistar, Liver, Membrane.
With `CC(C)n1c(/C=C/C(O)CC(O)CC(=O)O)c(-c2ccc(F)cc2)c2ccccc21` (stereo not drawn) [FLUVASTATIN], the IC50 entry was “Not Active”.

Take `COc1ccc(CN(CCN(C)C)c2ccccn2)cc1` [PYRILAMINE]: the IC50 entry was “Not Active”.

`CCCSc1ccc2nc(NC(=O)OC)[nH]c2c1` [ALBENDAZOLE]: the IC50 entry is on record as “Not Active”.

The target of the next assay is T2, Neuropeptide Y receptor type 1 (Homo sapiens, UniProt P25929). Further: in other assays of this panel Not Active means under 50% inhibition at 10 µM.
T2 sequence (P25929 whole entry): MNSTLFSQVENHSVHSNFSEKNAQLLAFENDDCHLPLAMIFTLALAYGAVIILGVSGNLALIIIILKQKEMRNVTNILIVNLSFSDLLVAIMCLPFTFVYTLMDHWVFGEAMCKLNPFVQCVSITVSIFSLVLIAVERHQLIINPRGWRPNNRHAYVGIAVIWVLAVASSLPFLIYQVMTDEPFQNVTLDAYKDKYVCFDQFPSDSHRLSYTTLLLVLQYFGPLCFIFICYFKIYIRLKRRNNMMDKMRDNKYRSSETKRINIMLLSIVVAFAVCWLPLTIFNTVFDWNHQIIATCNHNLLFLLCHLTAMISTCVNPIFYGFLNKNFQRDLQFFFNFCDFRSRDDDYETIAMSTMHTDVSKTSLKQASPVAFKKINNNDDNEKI
Assay: not given
Type of assay: cell membranes, Membrane. The following applies: sk-n-mc.
Consider `CC(C)n1c(/C=C/C(O)CC(O)CC(=O)O)c(-c2ccc(F)cc2)c2ccccc21` (stereo not drawn) [FLUVASTATIN], for which the IC50 entry is reported as “Not Active”.

On to `COc1ccc(CN(CCN(C)C)c2ccccn2)cc1` [PYRILAMINE], for which the IC50 result is “Not Active”.

`CCCSc1ccc2nc(NC(=O)OC)[nH]c2c1` [ALBENDAZOLE]: the IC50 entry is on record as “Not Active”.

The target in the next assay is T3, Neutrophil elastase (Homo sapiens, UniProt P08246).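 Further: inhibition of neutrophil elastase enzyme activity, measured with a p-nitroanilide-linked peptide substrate; in other assays of this panel Not Active means under 50% inhibition at 10 µM.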
T3 sequence (P08246 whole entry): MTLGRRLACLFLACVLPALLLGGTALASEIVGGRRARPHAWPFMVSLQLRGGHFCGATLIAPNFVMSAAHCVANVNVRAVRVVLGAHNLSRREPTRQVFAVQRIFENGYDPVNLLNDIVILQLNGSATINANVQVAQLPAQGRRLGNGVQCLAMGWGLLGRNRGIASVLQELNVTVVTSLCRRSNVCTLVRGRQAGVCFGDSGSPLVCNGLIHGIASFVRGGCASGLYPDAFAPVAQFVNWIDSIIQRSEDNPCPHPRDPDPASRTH
Assay: not given
Type of assay: tissue-based.
Settings: not given
As to `CC(C)n1c(/C=C/C(O)CC(O)CC(=O)O)c(-c2ccc(F)cc2)c2ccccc21` (stereo not drawn) [FLUVASTATIN], the IC50 result is on record as “Not Active”.

Take `COc1ccc(CN(CCN(C)C)c2ccccn2)cc1` [PYRILAMINE]: the IC50 entry was “Not Active”.

Take `CCCSc1ccc2nc(NC(=O)OC)[nH]c2c1` [ALBENDAZOLE]: the IC50 entry is reported as “Not Active”.

Another assay addresses cGMP-specific 3',5'-cyclic phosphodiesterase (Homo sapiens, UniProt O76074). Put plainly: DRUGMATRIX: Phosphodiesterase PDE5 enzyme inhibition (substrate: [3H]cGMP + cGMP). Format: tissue-based, Platelet. The following applies: platelet; Not Active = under 50% inhibition at 10 µM.
As for `CC(C)n1c(/C=C/C(O)CC(O)CC(=O)O)c(-c2ccc(F)cc2)c2ccccc21` (stereo not drawn) [FLUVASTATIN], the IC50 result was “Not Active”.

Consider `COc1ccc(CN(CCN(C)C)c2ccccn2)cc1` [PYRILAMINE], for which the IC50 result is “Not Active”.

Regarding `CCCSc1ccc2nc(NC(=O)OC)[nH]c2c1` [ALBENDAZOLE], the IC50 entry is recorded as “Not Active”.

Tested on in another assay: not listed separately
Description: DRUGMATRIX: Phorbol Ester radioligand binding (ligand: [3H] PDBu). Format: cell membranes, Mus musculus, ICR, Brain, Membrane. The following applies: Not Active = under 50% inhibition at 10 µM.
Turning to `CC(C)n1c(/C=C/C(O)CC(O)CC(=O)O)c(-c2ccc(F)cc2)c2ccccc21` (stereo not drawn) [FLUVASTATIN], the IC50 entry was “Not Active” and the Ki result is given as “Not Active”.

For `COc1ccc(CN(CCN(C)C)c2ccccn2)cc1` [PYRILAMINE], the IC50 entry is reported as “Not Active” and the Ki entry is listed as “Not Active”.

`CCCSc1ccc2nc(NC(=O)OC)[nH]c2c1` [ALBENDAZOLE]: the IC50 result is “Not Active” and the Ki result was “Not Active”.

The target in another assay is T4, Nitric oxide synthase, inducible (Mus musculus, UniProt P29477).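 Further: inhibition of iNOS enzyme activity measured with L-arginine as substrate; in other assays of this panel Not Active means under 50% inhibition at 10 µM.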
T4 sequence (P29477 whole entry): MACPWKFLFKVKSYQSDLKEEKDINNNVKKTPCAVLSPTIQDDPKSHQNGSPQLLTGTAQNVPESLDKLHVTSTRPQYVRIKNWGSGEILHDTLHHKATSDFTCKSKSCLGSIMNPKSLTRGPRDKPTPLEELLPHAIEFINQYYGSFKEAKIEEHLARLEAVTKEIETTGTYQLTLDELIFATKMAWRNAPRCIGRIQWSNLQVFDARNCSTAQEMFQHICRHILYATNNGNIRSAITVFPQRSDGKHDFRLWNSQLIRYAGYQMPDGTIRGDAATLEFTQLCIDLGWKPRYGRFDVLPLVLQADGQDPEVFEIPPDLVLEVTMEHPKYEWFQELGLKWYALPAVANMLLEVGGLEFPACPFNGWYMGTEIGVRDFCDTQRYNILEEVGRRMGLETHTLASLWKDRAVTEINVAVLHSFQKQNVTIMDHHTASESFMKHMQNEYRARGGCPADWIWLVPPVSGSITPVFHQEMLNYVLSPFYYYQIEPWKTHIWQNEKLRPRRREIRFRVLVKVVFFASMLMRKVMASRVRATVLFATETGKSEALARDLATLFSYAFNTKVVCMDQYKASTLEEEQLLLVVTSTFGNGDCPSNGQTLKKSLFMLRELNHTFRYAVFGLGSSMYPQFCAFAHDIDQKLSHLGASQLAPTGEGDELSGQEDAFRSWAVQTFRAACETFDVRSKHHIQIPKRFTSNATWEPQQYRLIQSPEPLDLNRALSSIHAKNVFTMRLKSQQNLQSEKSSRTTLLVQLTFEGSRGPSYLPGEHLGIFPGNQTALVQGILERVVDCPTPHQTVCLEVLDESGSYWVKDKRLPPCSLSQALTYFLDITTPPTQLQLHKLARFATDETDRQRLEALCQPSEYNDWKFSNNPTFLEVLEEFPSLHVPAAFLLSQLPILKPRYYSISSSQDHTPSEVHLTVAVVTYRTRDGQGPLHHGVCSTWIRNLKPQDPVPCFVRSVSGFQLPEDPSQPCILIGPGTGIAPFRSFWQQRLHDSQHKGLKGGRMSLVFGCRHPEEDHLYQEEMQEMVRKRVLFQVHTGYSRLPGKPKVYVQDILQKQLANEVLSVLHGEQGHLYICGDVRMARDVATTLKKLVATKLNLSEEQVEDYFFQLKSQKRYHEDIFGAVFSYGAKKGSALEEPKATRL
Assay: not given
Set-up: species or system Escherichia coli.
Settings: not given
Take `CC(C)n1c(/C=C/C(O)CC(O)CC(=O)O)c(-c2ccc(F)cc2)c2ccccc21` (stereo not drawn) [FLUVASTATIN]: the IC50 result is reported as “Not Active”.

In the case of `COc1ccc(CN(CCN(C)C)c2ccccn2)cc1` [PYRILAMINE], the IC50 entry is on record as “Not Active”.

For the compound `CCCSc1ccc2nc(NC(=O)OC)[nH]c2c1` [ALBENDAZOLE], the IC50 entry is “Not Active”.

The next assay has as its target T5, C-C chemokine receptor type 4 (Homo sapiens, UniProt P51679). Further: in other assays of this panel Not Active means under 50% inhibition at 10 µM.
T5 sequence (P51679 whole entry): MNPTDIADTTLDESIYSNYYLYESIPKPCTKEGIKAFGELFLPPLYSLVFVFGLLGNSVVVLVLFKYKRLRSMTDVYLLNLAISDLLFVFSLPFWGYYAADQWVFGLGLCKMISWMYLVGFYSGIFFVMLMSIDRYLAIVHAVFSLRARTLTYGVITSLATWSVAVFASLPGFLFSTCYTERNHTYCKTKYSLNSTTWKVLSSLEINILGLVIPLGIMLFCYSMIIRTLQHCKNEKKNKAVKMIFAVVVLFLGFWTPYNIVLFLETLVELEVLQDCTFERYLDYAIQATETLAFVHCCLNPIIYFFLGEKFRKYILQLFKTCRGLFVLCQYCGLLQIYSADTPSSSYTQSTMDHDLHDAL
Assay: not given
Format: cell membranes, Membrane. The following applies: chem-1.
In the case of `CC(C)n1c(/C=C/C(O)CC(O)CC(=O)O)c(-c2ccc(F)cc2)c2ccccc21` (stereo not drawn) [FLUVASTATIN], the IC50 entry is on record as “Not Active”.

Consider `COc1ccc(CN(CCN(C)C)c2ccccn2)cc1` [PYRILAMINE], for which the IC50 result is given as “Not Active”.

For the compound `CCCSc1ccc2nc(NC(=O)OC)[nH]c2c1` [ALBENDAZOLE], the IC50 result is “Not Active”.

Tested on in another assay: not listed separately
Put plainly: DRUGMATRIX: Glutamate, Kainate radioligand binding (ligand: [3H] Kainic acid). The following applies: Not Active = under 50% inhibition at 10 µM. Type of assay: cell membranes, Rattus norvegicus, Wistar, Brain, Membrane.
With `CC(C)n1c(/C=C/C(O)CC(O)CC(=O)O)c(-c2ccc(F)cc2)c2ccccc21` (stereo not drawn) [FLUVASTATIN], the IC50 result is reported as “Not Active” and the Ki entry is recorded as “Not Active”.

As to `COc1ccc(CN(CCN(C)C)c2ccccn2)cc1` [PYRILAMINE], the IC50 entry is on record as “Not Active” and the Ki entry is “Not Active”.

`CCCSc1ccc2nc(NC(=O)OC)[nH]c2c1` [ALBENDAZOLE]: the IC50 entry was “Not Active” and the Ki entry was “Not Active”.
